Test results taken from patent US9072800B2, “Hand sanitizer” (TRISTEL PLC, priority 2009, dated 2015).

Experiment: Flash point by Tag Closed Cup
Format: physicochemical
Text: MMB also has the benefit over ethanol that it is substantially non-flammable. […] MMB is considered to be extremely safe, having no R and S phrases and Occupational Exposure Limit.

Structure (SMILES): COC(C)(C)CCO [MMB, 3-methoxy-3-methylbutan-1-ol]
- flash point: 68 °C
